According to patent US20260347310A1, “PHENALKYLAMINES AND METHODS OF MAKING AND USING THE SAME” (GILGAMESH PHARMACEUTICALS, INC., priority 2022, published 2026):
“Also recorded” adds a separate entry of the source.

Tests used:
5-HT2A receptor [1] = target: T1, 5-HT2A receptor (Homo sapiens, UniProt P28223); test: Radioligand binding at 5-HT2A ([3H]ketanserin); set-up: expressed in transfected cells
Procedure: (§1) The binding affinities of disclosed compounds at the ketanserin binding site of the 5-HT2A receptor, the LSD binding site of the 5-HT2B receptor, and the mesulergine binding site of the 5-HT2C receptor were determined in radioligand binding experiments.
(§2) Method. The affinity of the test compounds for 5-HT2A, 5-HT2B, and 5-HT2C receptors was determined in radioligand binding experiments with [^3H]ketanserin, [^3H]LSD, and [^3H]mesulergine, respectively, by WuXi AppTec (Hong Kong) Limited, using methods adapted from the literature and under conditions described in Table 7.

5-HT2B receptor = target: T2, 5-HT2B receptor (Homo sapiens, UniProt P41595); test: Radioligand binding at 5-HT2B ([3H]LSD)
T2 construct: expressed in transfected cells; host or cells: HEK293
T2 sequence (P41595 whole entry): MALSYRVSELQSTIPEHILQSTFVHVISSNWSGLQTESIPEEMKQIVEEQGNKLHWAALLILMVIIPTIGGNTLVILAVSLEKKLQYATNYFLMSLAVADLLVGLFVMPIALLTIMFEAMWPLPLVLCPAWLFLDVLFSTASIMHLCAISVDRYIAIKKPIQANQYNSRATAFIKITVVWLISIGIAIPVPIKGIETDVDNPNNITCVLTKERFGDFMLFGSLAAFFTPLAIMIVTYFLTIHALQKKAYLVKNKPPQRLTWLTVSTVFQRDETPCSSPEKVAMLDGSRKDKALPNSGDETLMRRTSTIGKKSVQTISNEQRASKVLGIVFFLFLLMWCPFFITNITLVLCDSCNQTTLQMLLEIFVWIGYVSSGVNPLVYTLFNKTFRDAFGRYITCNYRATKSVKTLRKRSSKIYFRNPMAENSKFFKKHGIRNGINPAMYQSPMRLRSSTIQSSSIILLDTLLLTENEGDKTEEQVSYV
Procedure: as §1, §2

5-HT2A receptor [2] = target: T1, 5-HT2A receptor; test: FLIPR Ca2+ flux functional agonist assay at 5-HT2A; assay type: cell-based; set-up: expressed in transfected cells; host or cells: HEK293; conditions: for agonist activity at 5-HT2A (in words): potency or efficacy; for Emax: HEK293, read-out: 5-HT2A % Act @ Max Dose
Procedure: (§3) Disclosed compounds were tested for agonist activity at several serotonin receptor subtypes (5-HT2A, […], and 5-HT2C) using Ca^2+ flux functional assays, with the results summarized in Table 9.
(§4) Test Compounds. Compounds were prepared as described above.
Functional Assays at 5-HT2A and 5-HT2B. Agonist activity at 5-HT2A and 5-HT2B receptors was determined using a FLIPR Ca^2+ flux assay at WuXi AppTec (Hong Kong) Limited according to their standard protocols. Briefly, stably transfected cells expressing the receptor of interest (HEK293 for both 5-HT2A and 5-HT2B) were grown and plated in a 384-well plate and incubated at 37° C. and 5% CO2 overnight. A solution of 250 mM probenecid in 1 mL FLIPR assay buffer was prepared fresh. This was combined with a fluorescent dye (Fluo-4 Direct™) to make a final assay concentration of 2.5 mM. Compounds were diluted 1:3.16 for 10 points and 750 nL was added to a 384 well compound plate using ECHO along with 30 μL assay buffer. The fluorescent dye was then added to the assay plate along with assay buffer to a final volume of 40 μL. The cell plate was incubated for 50 min at 37° C. and 5% CO2 and placed into the FLIPR Tetra along with the compound plate. 10 μL of references and compounds were then transferred from the compound plate into the cell plate and the fluorescent signal was read.

5-HT2A receptor [3] = target: T1, 5-HT2A receptor; test: PathHunter beta-arrestin recruitment functional agonist assay at 5-HT2A; assay type: cell-based; set-up: expressed in transfected cells; host or cells: PathHunter cells (Eurofins DiscoverX); conditions: for agonist activity at 5-HT2A in arrestin assay (in words): beta-arrestin recruitment; for Emax: read-out: 5-HT2A Arrestin % Act @ Max Dose
Procedure: Disclosed compounds were tested for agonist activity at the 5-HT2A receptor using a beta-arrestin (arrestin) recruitment functional assay, with the results summarized in Table 10.
Arrestin Functional Assay at 5-HT2A. Recruitment of beta-arrestin was determined using a PathHunter assay at Eurofins DiscoverX (Fremont, CA) according to their standard protocols. PathHunter GPCR beta-arrestin assays take advantage of DiscoverX's proprietary Enzyme Fragment Complementation technology. The GPCR is fused in frame with a small enzyme donor fragment ProLink™ (PK) and co-expressed in cells stably expressing a fusion protein of beta-arrestin and the larger, N-terminal deletion mutant of beta-galactosidase. Activation of the GPCR (5-HT2A receptor in this case) stimulates binding of beta-arrestin to the PK-tagged GPCR and forces complementation of the two enzyme fragments, resulting in the formation of an active beta-galactosidase enzyme. This interaction leads to an increase in enzyme activity that can be measured using chemiluminescent PathHunter Detection Reagents. Briefly, PathHunter cells expressing 5-HT2A receptors were seeded in a volume of 20 μL into 384-well plates and incubated at 37° C. for the appropriate time prior to testing. For agonist activity determination, cells were incubated with 5 μL of 5× sample in assay buffer and incubated at 37° C. for 90-180 min with a vehicle concentration of 1%. Plates were then imaged on a microplate reader and the agonist activity was calculated using the following formula: % Activity=100%×(mean RLU of test sample−mean RLU of vehicle control)/(mean MAX control ligand−mean RLU of vehicle control), where RLU=relative light units.

5-HT2C receptor = target: T3, 5-HT2C receptor (Homo sapiens, UniProt P28335); test: FLIPR Ca2+ flux functional agonist assay at 5-HT2C; assay type: cell-based; set-up: expressed in transfected cells; conditions: for Emax: agonist activity, FLIPR Ca2+ flux, stably transfected cells, at max dose, read-out: 5-HT2C % Act @ Max Dose
T3 sequence (P28335 33-458): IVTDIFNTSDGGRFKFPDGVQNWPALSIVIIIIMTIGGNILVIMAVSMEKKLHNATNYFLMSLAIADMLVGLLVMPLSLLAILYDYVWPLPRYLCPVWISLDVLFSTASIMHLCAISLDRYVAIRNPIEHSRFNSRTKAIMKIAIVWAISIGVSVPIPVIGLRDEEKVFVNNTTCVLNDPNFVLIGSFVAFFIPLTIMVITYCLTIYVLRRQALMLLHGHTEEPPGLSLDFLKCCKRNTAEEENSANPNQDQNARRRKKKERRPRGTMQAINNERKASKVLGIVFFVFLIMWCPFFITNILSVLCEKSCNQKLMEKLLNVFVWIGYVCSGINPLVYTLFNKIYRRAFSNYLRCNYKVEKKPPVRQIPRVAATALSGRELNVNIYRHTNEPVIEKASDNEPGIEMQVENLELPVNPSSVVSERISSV
Procedure: as §3, §4
Functional Assays at 5-HT2C. Agonist activity at 5-HT2C was determined using a FLIPR Ca^2+ flux assay at Eurofins DiscoverX (Fremont, CA) according to their standard protocols. Briefly, stably transfected cells expressing the human 5-HT2C receptor were grown and plated in a 384-well plate and incubated at 37° C. and 5% CO2 overnight. Assays were performed in 1× Dye Loading Buffer consisting of 1× Dye, 1× Additive A, and 2.5 mM Probenecid in HBSS/20 mM Hepes. Probenecid was prepared fresh. Cells were loaded with dye prior to testing and incubated at 37° C. for 30-60 minutes. After dye loading, cells were removed from the incubator and 10 μL HBSS/20 mM Hepes was added. 3× vehicle was included in the assay buffer. Cells were incubated for 30 mins at room temperature in the dark to equilibrate plate temperature. Intermediate dilution of sample stocks was performed to generate 4× sample in assay buffer. Compound agonist activity was measured on a FLIPR Tetra (MDS). Calcium mobilization was monitored for 2 minutes and 10 μL 4× sample in HBSS/20 mM Hepes was added to the cells 5 seconds into the assay.

T1 sequence (P28223 whole entry): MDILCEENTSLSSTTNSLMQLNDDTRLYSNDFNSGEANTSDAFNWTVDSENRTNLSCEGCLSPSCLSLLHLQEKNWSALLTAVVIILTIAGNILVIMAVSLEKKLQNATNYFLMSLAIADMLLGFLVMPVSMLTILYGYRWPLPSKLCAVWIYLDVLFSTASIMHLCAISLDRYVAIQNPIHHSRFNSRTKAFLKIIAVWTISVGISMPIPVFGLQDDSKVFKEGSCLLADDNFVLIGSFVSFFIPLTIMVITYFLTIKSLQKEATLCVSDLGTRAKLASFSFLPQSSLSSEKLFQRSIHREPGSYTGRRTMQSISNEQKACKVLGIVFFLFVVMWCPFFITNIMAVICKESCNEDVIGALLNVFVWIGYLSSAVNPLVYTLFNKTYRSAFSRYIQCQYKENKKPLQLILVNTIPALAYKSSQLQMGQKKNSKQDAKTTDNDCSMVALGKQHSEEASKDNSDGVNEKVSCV

| SMILES | Ki (5-HT2A receptor [1]) | selectivity for 5-HT2A (in words) (5-HT2A receptor [1]; 1R, over 5-HT2B and 5-HT2C, compared to 1S) | Ki (5-HT2B receptor) | fold lower affinity at 5-HT2B (5-HT2B receptor; 1R compared to 1S) | EC50 (5-HT2A receptor [2]) | fold more potent at 5-HT2A (5-HT2A receptor [2]; 1R compared to 1S, Ca2+ flux) | agonist activity at 5-HT2A (in words) (5-HT2A receptor [2]; Ca2+ flux) | Emax (5-HT2A receptor [2]) | EC50 (5-HT2A receptor [3]) | agonist activity at 5-HT2A in arrestin assay (in words) (5-HT2A receptor [3]) | Emax (5-HT2A receptor [3]) | EC50 (5-HT2C receptor) | fold more potent at 5-HT2C (5-HT2C receptor; 1R compared to 1S, Ca2+ flux) | Emax (5-HT2C receptor) | binding at 5-HT2A receptors (in words) (5-HT2A receptor [1]; [3H]ketanserin) |
| --- | --- | --- | --- | --- | --- | --- | --- | --- | --- | --- | --- | --- | --- | --- | --- |
| CCCCCCc1cc(OC)c(C[C@H](N)CC)cc1OC [Compound 1R, (R)-1-(4-hexyl-2,5-dimethoxyphenyl)butan-2-amine] | 3.44 nM | greater selectivity for 5-HT2A | 111 nM | ~ 36 fold | 23.1 nM | ~ 2 fold | Efficacy at 5-HT2A was also greater for 1R compared to 1S | 76.8% | 6.23 nM | substantially more efficacious compared to 1S | 82.5% | 1190 nM | ~ 3 fold | 104% | – |
| CCC(N)Cc1cc(OC)c(CCCCCC(F)(F)F)cc1OC (racemic) [Compound 2a, 1-(2,5-dimethoxy-4-(6,6,6-trifluorohexyl)phenyl)butan-2-amine] | 5.4 nM | – | – | – | 156 nM | – | substantially less potent than 1R and 1S in the 5-HT2A FLIPR assay; also recorded: substantially lower efficacy than 1R or 1S | 36.2% | 33.2 nM | higher efficacy in this assay than in the 5-HT2A FLIPR assay | 56.8% | – | – | – | potent ligands for 5-HT2A |
| CCCCCCc1cc(OC)c(C[C@@H](N)CC)cc1OC [Compound 1S, (S)-1-(4-hexyl-2,5-dimethoxyphenyl)butan-2-amine] | 3.34 nM | – | 3.1 nM | – | 43.8 nM | – | – | 59.7% | 7.85 nM | – | 58.5% | 3130 nM | – | 106% | – |
